{
  "source": "paper PMC3531425",
  "about": "“Low Resolution Solution Structure of HAMLET and the Importance of Its Alpha-Domains in Tumoricidal Activity” (PLoS ONE, 2012)",
  "origin": "cited, not measured here",
  "system": "tumor cells",
  "details": "molecular range where the complex kills tumor cells; ref [10], [17]; cited from earlier work",
  "source_text": "The structural basis for HAMLET's tumoricidal activity is not fully understood. […] Since native α-lactalbumin lacks these activities, we hypothesized that the partially unfolded and ... || Recent Far-UV CD spectroscopy studies have shown that the secondary structural features in HAMLET are similar to those in α-lactalbumin [10], which include an alpha1 and alpha2 domain, consisting of the amino acid residues K1-Q39 and L81-L123, respectively, as well as the beta domain, formed by the residues A40-F80 (Fig. 3A–B). […] As described above the alpha2 domain forms a part of the globular domain (residues L81 to W104) as well as the C-terminal tail with t ...",
  "data": [
    {"molecule": "CCCCCCCC/C=C\\CCCCCCCC(=O)O", "note": "[oleic acid]", "values": [
      {"measurement": "Toxicity of oleic acid alone", "value": "not toxic"}
    ]}
  ]
}
